Laboratory results taken from patent publication US9682067B2, “Methods of improving cognitive function” (priority 2010, dated 2017).
Like-named read-outs stand apart in the source and are kept apart here.

Tests used:
[1] = tested on: GluR6 receptor; assay: Complex olfactory discrimination learning in 4-arm maze after injection into the brain ventricles; type: in vivo; settings: rats; 500 nmol into the brain ventricles, evaluation 10 min after daily injection; saline injected rats 8 days; p<0.001
Experimental: Olfactory discrimination protocol was performed in a 4-arm radial maze, with odors that are frequently used in the food industry (FIG. 1A). FIG. 1A is a schematic description of the 4-arm maze: an electronic ‘start’ command opens randomly two out of eight valves (V), releasing a positive-cue odor (P) into one of the arms and a negative-cue odor (N) into another. Eight seconds later, the two corresponding guillotine doors (D) are lifted to allow the rat to enter the selected arms. Upon reaching the far end of an arm (90 cm long), the rat body interrupts an infrared beam (I, arrow) and a drop of drinking water is released from a water hose (W) into a small drinking well (for a trained rat—only if the arm contains the positive-cue odor, for pseudo-trained rat—randomly). A trial ends when the rat interrupts a beam, or in 10 seconds, if no beam was interrupted. A fan is operated for 15 seconds between trials, to remove odors.
Olfactory training included 20 trials per day. […] A pseudo-trained group of age-matched rats was exposed to the same protocol of training, but with random water rewarding. An age-matched naive group of rats was water-deprived, without exposure to training. A day following memorization of a pair of odors by the rats in the trained group, both trained and pseudo trained groups were trained with a new pair of odors. […]

[2] = tested on: kainate receptors; assay: Post-burst AHP amplitude in pyramidal neurons of brain slices after brief kainate exposure; type: cell-based, rat; settings: for averaged AHP amplitude: after ten minutes long exposure to kainate, p<0.05
Experimental: brain slices of the pirofm cortex hippocampus are prepared and recordings were obtained from pyramidal neurons, with sharp electrodes for current clamp studies of AHP and neuronal adaptation. Data was collected from at least 20 neurons taken for 6 rats or more in each experimental group.
for after-hyper-polarization (AHP) measurement, neurons were depolarized in current clamp mode to Vm of −60 mV with DC current injection, and 100 ms long depolarizing current steps were applied with intensity sufficient to evoke trains of 6 action potentials. AHP amplitude was measured from baseline to the peak of the hyperpolarizing voltage deflection that follows the spike train (FIGS. 2A1 and 2A2). The AHP value was determined from the averaged amplitude in 4-5 consecutive traces, evoked at intervals of 10 sec. FIGS. 2A1 and 2A2 show the same trace on different time scales. Neurons were held at membrane potential of −60 mV and post-burst AHP was generated by 100 ms depolarizing current step injection via the recording electrode, with intensity sufficient to generate a train of 6 action potentials.
These experiments included a brief, ten minutes long, exposure to kainate. […] This decrease outlasted while kainate was present and was always apparent for the total length to kainate exposure (FIG. 8A).
The post burst AHP in neurons from trained rats was not affected by exposure to kainate. The averaged AHP in kainate induced, trained neurons was 6.63±2.4 (n=7).

[3] = tested on: GluR6; type: cell-based, mice; settings: 1 sec depolarizing pulse, Ithx2, versus control
Experimental: For neuronal adaptation measurements, prolonged (1 sec) depolarizing current steps are applied to the neurons via the recording electrode at Vrest, with stimulus intensity of twice IThreshold (FIG. 2B). The firing frequency was measured between each of two spikes in the train, and values were normalized to the initial frequency at which the first two spikes are generated. FIG. 2B is a graph depicting an example for neuronal firing adaptation in layer II pyramidal cell.
FIG. 10B is a bar graph depicting the number of spikes following kainate application in GluR6+/+ and GluR6−/− neurons, as opposed to control, (n) depicts the number of neurons.

Cc1onc(O)c1CCC(N)C(=O)O (racemic) [homo-AMPA, (RS)-2-amino-4-(3-hydroxy-5-methylisoxazol-4-yl)butyric acid]
averaged number of training days required for learning completion [1]: less than five

C=C(C)[C@H]1CN[C@H](C(=O)O)[C@H]1CC(=O)O [kainate, kainic acid]
averaged AHP amplitude ([2]; neurons from naive animals, n=16): 6.0±2.5 | averaged AHP amplitude ([2]; neurons from pseudo trained rats, n=7): 6.63 ± 2.4 | effect on post burst AHP ([2]; neurons from trained rats, exposure to kainate): not affected | averaged AHP ([2]; neurons from trained rats, kainate induced, n=7): 6.63±2.4 | number of action potentials (spikes) following kainate application ([3]; neurons from GluR6 knockout (GluR6-/-) mice): no effect | number of action potentials (spikes) following kainate application ([3]; neurons of wild type (GluR6+/+) mice): doubles
